Assay results as given in ChEMBL document CHEMBL1156829 (Proc Natl Acad Sci U S A, 2008).

Assays:
Plasmodium falciparum [1] = test: NOVARTIS: Inhibition of Plasmodium falciparum 3D7 (drug-susceptible) proliferation in erythrocyte-based infection assay; format: functional, organism-based; details: Plasmodium falciparum, 3D7
Plasmodium falciparum [2] = test: NOVARTIS: Inhibition of Plasmodium falciparum W2 (drug-resistant) proliferation in erythrocyte-based infection assay; format: functional, organism-based; details: Plasmodium falciparum, W2; read-out: EC50
[3] = NOVARTIS: Cytotoxicity against human hepatocellular carcinoma cell line (Huh7); format: toxicity, cell-based, Huh-7; details: Huh7 cells (hepatocellular carcinoma cell line)

In the case of `O=C1[C@@H]2CCCN2C(=O)C(c2ccc(Oc3ccccc3)cc2)N1CCc1ccccn1` (some centres undefined), the EC50 (Plasmodium falciparum [1]) is reported as greater than 1250 nM, the EC50 (Plasmodium falciparum [2]) is reported as less than 30.4 nM and the CC50 [3] is reported as greater than 10000 nM.

In the case of `CCCCCN(C(=O)c1cccc(F)c1)C(CC)c1nc2ccccc2c(=O)n1-c1ccc(Cl)cc1C` (centres undefined), the EC50 (Plasmodium falciparum [1]) is reported as 1460 nM, the EC50 (Plasmodium falciparum [2]) is reported as 480 nM and the CC50 [3] is reported as greater than 10000 nM.

In the case of `COc1ccc2[nH]c3c(=O)n(C)cnc3c2c1`, the EC50 (Plasmodium falciparum [1]) is reported as greater than 1410 nM, the EC50 (Plasmodium falciparum [2]) is reported as 1000 nM and the CC50 [3] is reported as greater than 10000 nM.

`CCCn1c(=N)c(C(=O)NC2CCCCC2)cc2c(=O)n3cccc(C)c3nc21` showed an EC50 (Plasmodium falciparum [1]) of 460 nM, an EC50 (Plasmodium falciparum [2]) of 1290 nM and a CC50 [3] greater than 100000 nM.

Work on `CN1CCN(NC=C2C(=O)N(c3nc4ccccc4s3)N=C2c2ccccc2)CC1` yielded an EC50 (Plasmodium falciparum [1]) greater than 12500 nM, an EC50 (Plasmodium falciparum [2]) of 2300 nM and a CC50 [3] greater than 100000 nM.

`Cc1cnc(CNc2cc(-c3ccccn3)nc(-c3ccccn3)n2)nc1` showed an EC50 (Plasmodium falciparum [1]) of 465 nM, an EC50 (Plasmodium falciparum [2]) of 646 nM and a CC50 [3] greater than 10000 nM.

With `O=C(O)c1ccc(NC(=O)c2ccc(N3C(=O)C4C5C=CC(C5)C4C3=O)cc2)cc1` (centres undefined) the EC50 (Plasmodium falciparum [1]) was greater than 11200 nM, the EC50 (Plasmodium falciparum [2]) was greater than 11200 nM and the CC50 [3] was greater than 100000 nM.

In the case of `Cc1ccc(Nc2nc(NCCO)c3ccccc3n2)cc1C`, the EC50 (Plasmodium falciparum [1]) is reported as 175 nM, the EC50 (Plasmodium falciparum [2]) is reported as 108 nM and the CC50 [3] is reported as 4900 nM.

Work on `COc1cccc(C2C(C(=O)Nc3ccccc3)=C(C)N=c3sc(=Cc4c[nH]c5ccccc45)c(=O)n32)c1` (centres undefined) yielded an EC50 (Plasmodium falciparum [1]) of 2470 nM, an EC50 (Plasmodium falciparum [2]) of 964 nM and a CC50 [3] greater than 100000 nM.

`CN(C)c1ccc(/C=C2\C(=O)NC(=O)N(Cc3ccccc3Cl)C2=O)cc1` gave an EC50 (Plasmodium falciparum [1]) greater than 1250 nM, an EC50 (Plasmodium falciparum [2]) of 1110 nM and a CC50 [3] greater than 10000 nM.

Compound `CC(C)CC(=O)N(C)CCCNc1ccnc2cc(Cl)ccc12` has an EC50 (Plasmodium falciparum [1]) of 740 nM, an EC50 (Plasmodium falciparum [2]) of 121 nM and a CC50 [3] of 7440 nM.

Compound `COc1ccc(/C=C/c2ccc3ccccc3[n+]2C)cc1OC` has an EC50 (Plasmodium falciparum [1]) of 872 nM, an EC50 (Plasmodium falciparum [2]) of 867 nM and a CC50 [3] greater than 10000 nM.

`COc1ccccc1CNC(=O)c1nn(-c2ccc(Cl)cc2)c(=O)c2ccccc12` showed an EC50 (Plasmodium falciparum [1]) of 1090 nM, an EC50 (Plasmodium falciparum [2]) of 2820 nM and a CC50 [3] greater than 100000 nM.

In the case of `Cc1cc(Nc2ccc(C)c(C)c2)n2nc(C)nc2n1`, the EC50 (Plasmodium falciparum [1]) is reported as 183 nM, the EC50 (Plasmodium falciparum [2]) is reported as 378 nM and the CC50 [3] is reported as greater than 100000 nM.

Compound `CCOC(=O)c1cc(S(=O)(=O)NCc2ccc(F)cc2)n[nH]1` has an EC50 (Plasmodium falciparum [1]) greater than 847 nM, an EC50 (Plasmodium falciparum [2]) of 88.1 nM and a CC50 [3] greater than 10000 nM.

`Cc1nnc(Nc2ccc(F)cc2)c2ccccc12` showed an EC50 (Plasmodium falciparum [1]) greater than 1250 nM, an EC50 (Plasmodium falciparum [2]) greater than 68.9 nM and a CC50 [3] greater than 10000 nM.

Work on `COc1cncc(-c2cncc(N3CCN(c4ccncc4)CC3)n2)c1` yielded an EC50 (Plasmodium falciparum [1]) of 80.4 nM, an EC50 (Plasmodium falciparum [2]) of 94.7 nM and a CC50 [3] greater than 10000 nM.

Compound `CCCCCCN(C(=O)c1ccc(CC)cc1)C(CC)c1nc2ccccc2c(=O)n1-c1cccc(Cl)c1` (centres undefined) has an EC50 (Plasmodium falciparum [1]) of 781 nM, an EC50 (Plasmodium falciparum [2]) of 782 nM and a CC50 [3] greater than 10000 nM.

Compound `CN1CCN(Nc2ccnc3cc4ccccc4cc23)CC1` has an EC50 (Plasmodium falciparum [1]) of 104 nM, an EC50 (Plasmodium falciparum [2]) of 246 nM and a CC50 [3] greater than 10000 nM.

With `CCOc1ccc2nc(C)cc(Nc3ccc(N(C)C)cc3)c2c1` the EC50 (Plasmodium falciparum [1]) was 344 nM, the EC50 (Plasmodium falciparum [2]) was 662 nM and the CC50 [3] was 16600 nM.

Compound `O=C(C=Cc1ccccc1Cl)Nc1ccc(Oc2ccc3ccccc3c2Cl)c(Cl)c1` has an EC50 (Plasmodium falciparum [1]) of 1030 nM, an EC50 (Plasmodium falciparum [2]) greater than 12500 nM and a CC50 [3] greater than 100000 nM.

Compound `COC(=O)C1=CNC=C(C(=O)OC)C1c1ccc(Cl)c(Cl)c1` has an EC50 (Plasmodium falciparum [1]) of 114 nM, an EC50 (Plasmodium falciparum [2]) of 105 nM and a CC50 [3] greater than 64900 nM.

With `COc1ccc(/C=C2\SC(=N)N(c3ccc4c(c3)OCO4)C2=O)cc1OC` the EC50 (Plasmodium falciparum [1]) was greater than 1720 nM, the EC50 (Plasmodium falciparum [2]) was greater than 1060 nM and the CC50 [3] was greater than 10000 nM.

`COc1cc2c(-c3cc(Br)ccc3O)nc3c(c(Cc4ccccc4)nn3-c3ccccc3)c2cc1OC` gave an EC50 (Plasmodium falciparum [1]) of 146 nM, an EC50 (Plasmodium falciparum [2]) of 145 nM and a CC50 [3] greater than 100000 nM.

For `O=C(CSc1nc2ccccc2[nH]1)Nc1ccc2c(c1)OCO2`, the EC50 (Plasmodium falciparum [1]) was greater than 1250 nM, the EC50 (Plasmodium falciparum [2]) was greater than 1040 nM and the CC50 [3] was greater than 10000 nM.

Compound `CCCN(CCC)CC(O)COc1ccccc1C(=O)Nc1ccccc1` (centres undefined) has an EC50 (Plasmodium falciparum [1]) of 365 nM, an EC50 (Plasmodium falciparum [2]) of 51.1 nM and a CC50 [3] greater than 100000 nM.

For `O=C(Nc1ccc(-c2nc3ccccc3[nH]2)cc1)c1ccc(-c2ccc(Cl)cc2)o1`, the EC50 (Plasmodium falciparum [1]) was 193 nM, the EC50 (Plasmodium falciparum [2]) was 444 nM and the CC50 [3] was 16600 nM.

`CN(C)c1ccc(C=C2C(=O)NC(=O)N(Cc3ccccc3Cl)C2=O)cc1` showed an EC50 (Plasmodium falciparum [1]) greater than 12500 nM, an EC50 (Plasmodium falciparum [2]) of 1550 nM and a CC50 [3] greater than 100000 nM.
